From patent US8551963B2, “Imidazolothiazole compounds and methods of use thereof” (Ambit Biosciences Corporation, priority 2008, dated 2013)
Read-outs that look alike come from different tables or passages of the source.

Columns and labels:
plasma protein = experiment: Plasma protein binding assay (equilibrium dialysis); format: in vitro ADME; conditions: 1 μM, equilibrium dialysis 16-20 hours at 37° C.
Experimental: Reagents: 1× Isotonic PBS (Mediatech, Inc., Herndon, Va.); 96 Well Equilibrium Dialyzer (Harvard Apparatus, Holliston, Mass.) and Animal plasma from species of interest.
1 μM solutions of test compound were prepared in both isotonic PBS and 10% animal plasma in isotonic PBS.
200 μl of each test solution was added to opposite sides of the equilibrium dialysis membrane.
Samples were incubated for 16-20 hours at 37° C.
After incubation, 100 μl sample was removed from the PBS side and diluted with 100 μl of 20% animal plasma in PBS.
100 μl sample was removed from the 10% animal plasma side and diluted with 100 μl of 10% animal plasma.
A calibration curve was prepared in 10% animal plasma to extrapolate unknown concentrations.
Samples were analyzed by LC/MS/MS.
50 μl of samples, calibration standards and quality control standards were extracted with 100 μl of acetonitrile containing 25 ng/ml of internal standard.
Calculations Calculate fraction unbound in 10% plasma Fu(10%)=1−(PC−PF)/PC) Convert 10% plasma value to 100% Fu(100%)=Fu10%/(10−9*Fu10%).

CYP3A4 = CYP3A4 (Homo sapiens (Human), UniProt P08684); experiment: Time dependant inhibition in human liver microsomes, CYP3A4; format: in vitro ADME; conditions: CYP3A4, 10 μM, pre-incubation 0-30 minutes
Experimental: For each CYP isoform tested, 10 μM Compound I-1 was pre-incubated with pooled male and female human liver microsomes with NADPH in a 37° C. shaking water bath in duplicate to afford a final pre-incubation assay concentration of 100 mM KPO4/pH 7.4, 10 mM MgCl2, 2 mg/mL of human liver microsome (CellzDirect lot HLM HMMC-PL020) and 1 mM NADPH (Calbiochem). At each pre-incubation time point (0, 5, 10, 20, and 30 minutes) 20 μL was removed and placed in a second 96 well plate on ice. After all pre-incubation time points were collected 180 uL of additional human microsome liver preparation containing the appropriate CYP specific substrate at its Km concentration listed in Table 11 plus NADPH, was added to each time point. The samples were incubated for an additional 10 minutes in a 37° C. shaking water bath and then quenched with 75:25 acetonitrile (ACN):water containing the appropriate internal standards listed in Table 11. After brief mixing, the plate was centrifuged and the supernatant removed for analysis by LC/MS/MS (API 4000 Qtrap) for the formation of 6-hydroxy-testosterone (CYP3A4), 4-hydroxy-mephenyloin (CYP2C19), or 6-hydroxy-taxol (CYP2C8). […] Consistent with Example 5, Compound I-1 did inhibit CYP2C8-mediated metabolite formation at 10 μM, but not in a time dependent manner.

MV4;11 cells = experiment: MV4;11 cellular proliferation assay (Cell Titer Blue); format: cell-based; conditions: Homo sapiens, MV4-11, 72 h, read-out: EC50 (50% inhibition of cellular proliferation)
Experimental: Cells were cultured overnight in low serum media with 0.5% FBS. The following day, cells were seeded on to a 96-well plate at 40,000 cells per well at a volume of 100 μL per well.
CTB reagent was thawed in a 37° C. water bath. 40 μL of CTB reagent was added to the plate containing the cells, and the cells were incubated with the reagent at 37° C. in 5% CO2 for 3 hours. The absorbance was measured at 560 nm (excitation)/590 nm (emission) using Spectramax Plus 384 Absorbance Microplate Reader by Molecular Devices.

CYP2C8 = CYP2C8 (Homo sapiens (Human), UniProt P10632); experiment: Inhibitory constant KI in human liver microsomes, CYP2C8; format: in vitro ADME; conditions: CYP2C8, global non-linear regression
Experimental: A 2 mM stock of Compound I-1 was prepared in acetonitrile (ACN) and serially diluted 2-fold from 2000 μM to 15.63 μM in ACN. […] Individual human liver microsome preparations containing the substrate were then incubated with Compound I-1 (final concentration range 40 μM to 0.31 μM of Compound I-1) for a final incubation concentration of 0.5 mg/mL microsome, 75 mM KPO4, 6.5 mM MgCl2, 1 mM NADPH and 2% acetonitrile (ACN). The samples were incubated in a 37° C. shaking water bath for 20 minutes then quenched with ACN:water (75:25) containing internal standards propranolol at 0.3 ng/mL and cortisone at 0.3 ng/mL. After brief mixing, the plate was centrifuged and the supernate removed for analysis by LC/MS/MS (API 4000 Qtrap) for formation of 6-hydroxy-testosterone (CYP3A4), 4-hydroxy-mephenyloin (CYP2C19) or hydroxy-taxol (CYP2C8). The data was analyzed using global non-linear regression software (GraphPad Prism) and the overall fit of the data (R^2) was used to determine if Compound I-1 was a competitive, non-competitive, or uncompetitive inhibitor. In addition the data was plotted as a Lineweaver-Burke graph (1/V versus 1/S, where V is the […] and S is the substrate concentration) for each inhibitor concentration. Based on the location of convergence (competitive and non-competitive) or non convergence (uncompetitive) of the plots at each inhibitor concentration, the type of inhibition was determined.
Global non-linear regression allows analysis of all the individual inhibitor curves simultaneously and determines the best fit value for shared parameters between the data sets, in this case KI (or KI′). The results of the global nonlinear analysis of Compound I-1 inhibition of the CYP450 isoforms 3A4, 2C19 and 2C8 are shown in Table 12.

FLT3 (ITD) = FLT3 (ITD) (Homo sapiens, UniProt P36888, ITD); experiment: biochemical; format: binding
Experimental: Competition binding assays used herein were developed, validated and performed as described in Fabian et al., Nature Biotechnology 2005, 23, 329-336. Kinases were produced as fusions to T7 phage (See, Fabian et al. or WO04/015142) or alternatively, the kinases were expressed in HEK-293 cells and subsequently tagged with DNA for PCR detection (See, WO08/005,310). […] The liganded beads were blocked with excess biotin and washed with blocking buffer (SeaBlock (Pierce), 1% BSA, 0.05% Tween 20, 1 mM DTT) to remove unbound ligand and to reduce non-specific binding. […] Test compounds were prepared as 100× stocks in DMSO and rapidly diluted into the aqueous environment. DMSO was added to control assays lacking a test compound. […] The kinase concentration in the eluates was measured by quantitative PCR. Each kinase was tested individually against each compound. Kds were determined using eleven serial threefold dilutions.

CYP2C19 = CYP2C19 (Homo sapiens (Human), UniProt P33261); experiment: Cyp enzyme inhibition assay in human liver microsomes, CYP2C19; format: in vitro ADME; conditions: CYP2C19, substrate mephenytoin
Experimental: The ability of the compound I-1 to inhibit human metabolizing enzymes CYP3A4, CYP2C9, […], CYP2C19 and CYP1A2, was assessed using those enzymes found collectively in human liver microsomes. The test compound I-1 was prepared as a solution in DMSO or acetonitrile and plated in duplicate rows of a 96-well plate (Nunc) for a final assay concentration of 40 μM in 0.2% DMSO (or 2% acetonitrile) in the first column and serially diluted two-fold going down the row. A known selective inhibitor of a given CYP enzyme listed in Table 8 was selected as the appropriate positive control. For each CYP enzyme inhibition assay, an appropriate enzyme-substrate mixture was prepared to afford a final assay concentration of 75 mM KPO4/pH 7.4, 6.5 mM MgCl2, 0.25 mg/mL pooled male and female human liver microsome (CellzDirect lot HMMC-PL020) with the amounts of the appropriate substrate for each CYP enzyme assay given in Table 8. The enzyme-substrate mixture was added to columns 1 through 10 and column 11 served as a negative control with enzyme solution lacking substrate. A solution of NADPH (Calbiochem) was then added to all rows except for one where NADPH would be added after the incubation period, in order to detect NADPH-independent non-CYP-mediated metabolism. The plate was briefly vortexed and left to shake in a 37° C. water bath for 20 minutes. […]

Chain of CYP2C8 (P10632 whole entry): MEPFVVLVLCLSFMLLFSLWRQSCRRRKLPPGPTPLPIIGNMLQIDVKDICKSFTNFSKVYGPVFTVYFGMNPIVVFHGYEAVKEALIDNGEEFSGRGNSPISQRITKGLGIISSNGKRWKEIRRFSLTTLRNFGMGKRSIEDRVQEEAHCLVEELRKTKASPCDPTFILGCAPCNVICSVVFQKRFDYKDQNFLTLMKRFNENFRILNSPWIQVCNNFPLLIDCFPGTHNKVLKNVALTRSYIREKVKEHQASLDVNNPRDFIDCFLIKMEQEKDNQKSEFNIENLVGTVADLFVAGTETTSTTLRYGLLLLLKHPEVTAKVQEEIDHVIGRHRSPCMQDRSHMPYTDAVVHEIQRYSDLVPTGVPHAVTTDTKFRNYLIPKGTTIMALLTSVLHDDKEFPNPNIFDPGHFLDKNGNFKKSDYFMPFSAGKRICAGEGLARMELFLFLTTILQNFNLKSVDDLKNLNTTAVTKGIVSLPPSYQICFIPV
Chain of CYP2C19 (P33261 whole entry): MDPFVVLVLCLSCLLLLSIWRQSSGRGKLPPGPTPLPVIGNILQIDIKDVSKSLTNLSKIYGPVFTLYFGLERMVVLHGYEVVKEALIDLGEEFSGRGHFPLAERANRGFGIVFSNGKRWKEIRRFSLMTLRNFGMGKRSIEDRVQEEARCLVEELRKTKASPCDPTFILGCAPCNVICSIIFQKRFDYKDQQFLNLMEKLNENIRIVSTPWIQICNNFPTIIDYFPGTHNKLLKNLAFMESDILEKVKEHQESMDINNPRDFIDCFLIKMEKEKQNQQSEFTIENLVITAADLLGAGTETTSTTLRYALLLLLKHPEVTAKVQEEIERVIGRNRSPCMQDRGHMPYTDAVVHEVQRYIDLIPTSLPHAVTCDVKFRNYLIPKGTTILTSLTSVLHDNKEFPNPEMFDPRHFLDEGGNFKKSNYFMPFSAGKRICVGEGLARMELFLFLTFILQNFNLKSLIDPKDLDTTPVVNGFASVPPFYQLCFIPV
Chain of FLT3 (ITD) (P36888 whole entry, looked up, change not shown): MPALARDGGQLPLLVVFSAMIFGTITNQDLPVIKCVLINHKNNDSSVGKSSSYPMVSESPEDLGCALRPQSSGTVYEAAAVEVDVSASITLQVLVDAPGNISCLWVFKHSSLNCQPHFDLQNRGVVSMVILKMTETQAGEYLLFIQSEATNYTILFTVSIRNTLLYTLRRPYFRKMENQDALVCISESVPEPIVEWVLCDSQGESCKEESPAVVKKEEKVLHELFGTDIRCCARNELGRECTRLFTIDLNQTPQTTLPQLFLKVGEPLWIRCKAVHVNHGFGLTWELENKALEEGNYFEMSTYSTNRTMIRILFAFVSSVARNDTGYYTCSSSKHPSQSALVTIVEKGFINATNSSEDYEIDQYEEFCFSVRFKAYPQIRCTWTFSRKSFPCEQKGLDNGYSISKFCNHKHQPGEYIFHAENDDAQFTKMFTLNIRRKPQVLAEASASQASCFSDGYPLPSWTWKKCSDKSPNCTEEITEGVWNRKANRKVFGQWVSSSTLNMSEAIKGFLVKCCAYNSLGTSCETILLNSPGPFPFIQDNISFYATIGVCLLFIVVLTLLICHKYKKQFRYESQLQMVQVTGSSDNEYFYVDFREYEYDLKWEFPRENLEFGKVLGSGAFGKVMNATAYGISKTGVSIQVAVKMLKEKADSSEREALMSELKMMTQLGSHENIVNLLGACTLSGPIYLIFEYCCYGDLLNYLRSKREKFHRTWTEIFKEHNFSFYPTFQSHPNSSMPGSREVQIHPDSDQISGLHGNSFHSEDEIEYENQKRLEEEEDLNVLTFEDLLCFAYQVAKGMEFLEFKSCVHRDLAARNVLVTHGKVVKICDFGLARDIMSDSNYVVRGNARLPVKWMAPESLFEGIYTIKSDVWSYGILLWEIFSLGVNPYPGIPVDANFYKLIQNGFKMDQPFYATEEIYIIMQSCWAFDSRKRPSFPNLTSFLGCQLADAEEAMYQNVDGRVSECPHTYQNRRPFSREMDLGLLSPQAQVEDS
Chain of CYP3A4 (P08684 whole entry, canonical isoform): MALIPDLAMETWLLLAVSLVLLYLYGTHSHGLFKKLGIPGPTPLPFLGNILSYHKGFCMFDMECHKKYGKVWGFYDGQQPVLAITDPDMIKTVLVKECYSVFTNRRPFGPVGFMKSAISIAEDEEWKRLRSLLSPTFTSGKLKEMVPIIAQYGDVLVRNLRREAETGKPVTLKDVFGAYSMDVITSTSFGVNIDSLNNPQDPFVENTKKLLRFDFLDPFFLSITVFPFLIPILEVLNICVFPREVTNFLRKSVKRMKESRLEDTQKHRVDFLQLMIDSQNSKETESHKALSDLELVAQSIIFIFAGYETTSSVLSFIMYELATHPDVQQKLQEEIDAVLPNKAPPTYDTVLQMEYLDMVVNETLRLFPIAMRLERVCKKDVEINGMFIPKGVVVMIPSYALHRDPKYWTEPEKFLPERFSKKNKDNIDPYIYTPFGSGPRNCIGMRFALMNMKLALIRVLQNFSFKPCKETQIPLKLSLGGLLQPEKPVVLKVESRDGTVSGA

With `CC(C)(CO)c1cc(NC(=O)Nc2ccc(-c3cn4c(n3)sc3cc(OCCN5CCOCC5)ccc34)cc2)no1` [Compound I-1, 1-[5-(2-hydroxy-1,1-dimethyl-ethyl)-isoxazol-3-yl]-3-{4-[7-(2-morpholin-4-yl-ethoxy)-benzo[d]imidazo[2,1-b]thiazol-2-yl]-phenyl}-urea] the “Percentage of unbound compound in 10% plasma” value (plasma protein) was 42.5%, the Time dependant inhibition (CYP3A4) was “not a time dependant inhibitor” and the EC50 (MV4;11 cells) was 0.0003 µM. The Ki (CYP2C8; read-out: Best Fit KI, Competitive) was 22.1 µM, the Ki (CYP2C8; read-out: Best Fit KI, Non-competitive) was 60.8 µM and the Ki (CYP2C8; read-out: Best Fit KI′, Uncompetitive) was 37.7 µM. For the same compound, the Kd (FLT3 (ITD)) was 0.0088 µM and the IC50 (CYP2C19) was 15.5 µM.
